Experiments:
[1] = test system: L2987; assay: Antiproliferative activity against L2987 cells; details: Homo sapiens
[2] = test system: HUVEC; assay: Antiproliferative activity against VEGF-stimulated HUVEC; details: Homo sapiens
[3] = test system: HCT-116; assay: Inhibition of tumor growth in Athymic mouse xenografted with HCT116 at 50 mg/kg after 14 days; format: functional, Homo sapiens; details: HCT-116, 336 h, read-out: TGI
[4] = Bioavailability in Sprague-Dawley rat at 50 mg/kg, po; format: ADME, organism-based; details: in vivo
[5] = target: MAP kinase-activated protein kinase 2 (Homo sapiens, UniProt P49137); assay: Inhibition of MAPKAPK2
[6] = test system: Cynomolgus monkey; assay: AUC in cynomolgus monkey at 5 mg/kg, po; format: ADME, organism-based, Macaca fascicularis, Plasma; design: dose 5 mg/kg, route oral; details: in vivo
[7] = Clearance in Sprague-Dawley rat at 10 mg/kg, iv; format: ADME, organism-based; design: dose 10 mg/kg, route intravenous; details: in vivo
[8] = target: Glycogen synthase kinase-3 (Homo sapiens, UniProt P49840+P49841); assay: Inhibition of GSK3; format: protein assay
[9] = target: Receptor tyrosine-protein kinase erbB-2 (Homo sapiens, UniProt P04626); assay: Inhibition of Her2
[10] = target: Protein kinase C alpha type (Homo sapiens, UniProt P17252); assay: Inhibition of PKCalpha
[11] = target: Vascular endothelial growth factor receptor 2 (Homo sapiens, UniProt P35968)
[12] = target: SRSF protein kinase 1 (Homo sapiens, UniProt Q96SB4); assay: Inhibition of SRPK1
[13] = Mean residence time in cynomolgus monkey at 5 mg/kg, po; format: ADME, organism-based, Macaca fascicularis; design: dose 5 mg/kg, route oral; details: in vivo
[14] = Tmax in Sprague-Dawley rat at 50 mg/kg, po; format: ADME, organism-based; design: dose 50 mg/kg, route oral; details: in vivo
[15] = target: Proto-oncogene tyrosine-protein kinase Src (Homo sapiens, UniProt P12931); assay: Inhibition of Src
[16] = target: Protein kinase C eta type (Homo sapiens, UniProt P24723); assay: Inhibition of PKCeta
[17] = target: Inhibitor of NF-kappa-B kinase (IKK) (Homo sapiens, UniProt O14920+O15111+Q9Y6K9); assay: Inhibition of IKK; format: protein-complex assay
[18] = Bioavailability in cynomolgus monkey at 5 mg/kg, po; format: ADME, organism-based, Macaca fascicularis; details: in vivo
[19] = Half life in Sprague-Dawley rat at 50 mg/kg, po; format: ADME, organism-based; design: dose 50 mg/kg, route oral; details: in vivo
[20] = Cmax in Sprague-Dawley rat at 50 mg/kg, po; format: ADME, organism-based; design: dose 50 mg/kg, route oral; details: in vivo
[21] = Clearance in cynomolgus monkey at 1 mg/kg, iv; details: in vivo
[22] = Cmax in cynomolgus monkey at 5 mg/kg, po; format: ADME, organism-based, Macaca fascicularis; design: dose 5 mg/kg, route oral; details: in vivo
[23] = Volume of distribution in Sprague-Dawley rat at 10 mg/kg, iv; format: ADME, organism-based; design: dose 10 mg/kg, route intravenous; details: in vivo, read-out: Vss
[24] = test system: L2987; assay: Inhibition of tumor growth in Athymic mouse xenografted with L2987 at 25 mg/kg after 14 days; format: functional, Homo sapiens; details: L2987, 336 h, read-out: TGI
[25] = Cmax in Balb/C mouse at 90 mg/kg, po; format: ADME, organism-based; design: dose 90 mg/kg, route oral; details: in vivo
[26] = target: Tyrosine-protein kinase SYK (Homo sapiens, UniProt P43405); assay: Inhibition of Syk
[27] = target: Tyrosine-protein kinase ITK/TSK (Homo sapiens, UniProt Q08881); assay: Inhibition of Itk
[28] = target: MAP kinase p38 (Homo sapiens, UniProt O15264+Q15759+Q16539+P53778); assay: Inhibition of p38; format: protein assay
[29] = target: Vascular endothelial growth factor receptor 2 (Mus musculus) (UniProt P35918); assay: Inhibition of FLK1
[30] = target: Fibroblast growth factor receptor 1 (Homo sapiens, UniProt P11362); assay: Inhibition of FGFR1
[31] = target: Protein kinase C delta type (Homo sapiens, UniProt Q05655); assay: Inhibition of PKCdelta
[32] = test system: Rattus norvegicus; assay: AUC in Sprague-Dawley rat at 50 mg/kg, po; format: ADME, organism-based, Plasma; design: dose 50 mg/kg, route oral; details: in vivo
[33] = Volume of distribution in Balb/C mouse at 10 mg/kg, iv; format: ADME, organism-based; design: dose 10 mg/kg, route intravenous; details: in vivo, read-out: Vss
[34] = Half life in Balb/C mouse at 90 mg/kg, po; format: ADME, organism-based; design: dose 90 mg/kg, route oral; details: in vivo
[35] = Half life in cynomolgus monkey at 5 mg/kg, po; format: ADME, organism-based, Macaca fascicularis; design: dose 5 mg/kg, route oral; details: in vivo
[36] = target: Protein kinase C zeta type (Homo sapiens, UniProt Q05513); assay: Inhibition of PKCzeta
[37] = target: Insulin-like growth factor 1 receptor (Homo sapiens, UniProt P08069); assay: Inhibition of IGF1R
[38] = test system: L2987; assay: Inhibition of tumor growth in Athymic mouse xenografted with L2987 at 180 mg/kg after 14 days; format: functional, Homo sapiens; details: L2987, 336 h, read-out: TGI
[39] = Mean residence time in Balb/C mouse at 90 mg/kg, po; format: ADME, organism-based; design: dose 90 mg/kg, route oral; details: in vivo
[40] = test system: L2987; assay: Inhibition of tumor growth in Athymic mouse xenografted with L2987 at 60 mg/kg after 14 days; format: functional, Homo sapiens; details: L2987, 336 h, read-out: TGI
[41] = target: Dual specificity mitogen-activated protein kinase kinase 1 (Homo sapiens, UniProt Q02750); assay: Inhibition of MEK
[42] = target: Vascular endothelial growth factor receptor 1 (Homo sapiens, UniProt P17948); assay: Inhibition of VEGFR1
[43] = test system: Cynomolgus monkey; assay: Volume of distribution in cynomolgus monkey at 1 mg/kg, iv; details: in vivo
[44] = Clearance in Balb/C mouse at 10 mg/kg, iv; format: ADME, organism-based; design: dose 10 mg/kg, route intravenous; details: in vivo
[45] = target: Platelet-derived growth factor receptor beta (Homo sapiens, UniProt P09619); assay: Inhibition of PDGFR beta
[46] = Tmax in cynomolgus monkey at 5 mg/kg, po; format: ADME, organism-based, Macaca fascicularis; design: dose 5 mg/kg, route oral; details: in vivo
[47] = target: Serine/threonine-protein kinase AKT (Homo sapiens, UniProt P31751+Q9Y243+P31749); assay: Inhibition of AKT; format: protein assay
[48] = target: Cyclin-dependent kinase 2 (Homo sapiens, UniProt P24941); assay: Inhibition of CDK2
[49] = target: Mast/stem cell growth factor receptor Kit (Homo sapiens, UniProt P10721); assay: Inhibition of c-kit
[50] = test system: HCT-116; assay: Inhibition of tumor growth in Athymic mouse xenografted with HCT116 at 12.5 mg/kg after 14 days; format: functional, Homo sapiens; details: HCT-116, 336 h, read-out: TGI
[51] = Tmax in Balb/C mouse at 90 mg/kg, po; format: ADME, organism-based; design: dose 90 mg/kg, route oral; details: in vivo
[52] = Mean residence time in Sprague-Dawley rat at 50 mg/kg, po; format: ADME, organism-based; design: dose 50 mg/kg, route oral; details: in vivo
[53] = test system: HCT-116; assay: Inhibition of tumor growth in Athymic mouse xenografted with HCT116 at 25 mg/kg after 14 days; format: functional, Homo sapiens; details: HCT-116, 336 h, read-out: TGI
[54] = target: Tyrosine-protein kinase JAK3 (Homo sapiens, UniProt P52333); assay: Inhibition of JAK3
[55] = test system: L2987; assay: Inhibition of tumor growth in Athymic mouse xenografted with L2987 at 50 mg/kg after 14 days; format: functional, Homo sapiens; details: L2987, 336 h, read-out: TGI
[56] = Bioavailability in Balb/C mouse at 90 mg/kg, po; format: ADME, organism-based; details: in vivo
[57] = test system: L2987; assay: Inhibition of tumor growth in Athymic mouse xenografted with L2987 at 90 mg/kg after 14 days; format: functional, Homo sapiens; details: L2987, 336 h, read-out: TGI
[58] = target: Voltage-gated inwardly rectifying potassium channel KCNH2 (Homo sapiens, UniProt Q12809); assay: Inhibition of human ERG expressed in HEK293 cells; format: cell-based
[59] = test system: Mus musculus; assay: AUC (0-24h) in Balb/C mouse at 90 mg/kg, po; format: ADME, organism-based, Plasma; design: time < 24 hr, dose 90 mg/kg, route oral; details: in vivo

Chain of Vascular endothelial growth factor receptor 2 (P35968 whole entry): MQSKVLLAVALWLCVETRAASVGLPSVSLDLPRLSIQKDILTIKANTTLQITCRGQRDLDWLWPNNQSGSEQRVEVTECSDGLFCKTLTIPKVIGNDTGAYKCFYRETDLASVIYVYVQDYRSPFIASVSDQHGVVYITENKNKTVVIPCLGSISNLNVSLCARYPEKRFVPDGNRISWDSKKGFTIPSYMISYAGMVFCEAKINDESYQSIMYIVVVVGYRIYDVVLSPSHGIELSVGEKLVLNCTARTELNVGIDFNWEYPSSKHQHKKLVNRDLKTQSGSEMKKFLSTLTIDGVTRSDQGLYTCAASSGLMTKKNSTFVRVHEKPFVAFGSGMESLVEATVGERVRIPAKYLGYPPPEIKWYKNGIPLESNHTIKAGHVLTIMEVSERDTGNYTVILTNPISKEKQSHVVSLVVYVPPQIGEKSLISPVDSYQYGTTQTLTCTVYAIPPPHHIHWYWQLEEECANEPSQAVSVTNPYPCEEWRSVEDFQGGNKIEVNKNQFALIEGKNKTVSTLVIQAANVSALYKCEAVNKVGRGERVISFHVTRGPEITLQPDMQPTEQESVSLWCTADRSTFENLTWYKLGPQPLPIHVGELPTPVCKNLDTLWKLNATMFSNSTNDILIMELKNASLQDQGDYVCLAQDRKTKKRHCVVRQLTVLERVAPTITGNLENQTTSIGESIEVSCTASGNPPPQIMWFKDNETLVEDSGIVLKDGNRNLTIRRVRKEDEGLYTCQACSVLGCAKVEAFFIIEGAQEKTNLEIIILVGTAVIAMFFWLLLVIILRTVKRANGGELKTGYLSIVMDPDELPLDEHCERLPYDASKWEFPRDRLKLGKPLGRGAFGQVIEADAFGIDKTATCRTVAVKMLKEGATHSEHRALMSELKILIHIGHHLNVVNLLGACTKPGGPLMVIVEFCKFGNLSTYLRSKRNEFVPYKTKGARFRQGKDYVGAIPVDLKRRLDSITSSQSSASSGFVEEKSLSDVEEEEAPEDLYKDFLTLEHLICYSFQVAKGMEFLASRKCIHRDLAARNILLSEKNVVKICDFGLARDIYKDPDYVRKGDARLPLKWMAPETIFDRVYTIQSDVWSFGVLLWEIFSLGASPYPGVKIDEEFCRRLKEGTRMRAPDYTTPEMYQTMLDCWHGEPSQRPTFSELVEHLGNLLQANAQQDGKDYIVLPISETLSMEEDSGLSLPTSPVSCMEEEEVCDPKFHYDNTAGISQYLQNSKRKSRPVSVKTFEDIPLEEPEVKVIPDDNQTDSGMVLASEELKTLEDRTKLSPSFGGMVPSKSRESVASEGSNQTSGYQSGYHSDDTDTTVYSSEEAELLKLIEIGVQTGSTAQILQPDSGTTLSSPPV
Chain of Proto-oncogene tyrosine-protein kinase Src (P12931 2-536 limits assumed): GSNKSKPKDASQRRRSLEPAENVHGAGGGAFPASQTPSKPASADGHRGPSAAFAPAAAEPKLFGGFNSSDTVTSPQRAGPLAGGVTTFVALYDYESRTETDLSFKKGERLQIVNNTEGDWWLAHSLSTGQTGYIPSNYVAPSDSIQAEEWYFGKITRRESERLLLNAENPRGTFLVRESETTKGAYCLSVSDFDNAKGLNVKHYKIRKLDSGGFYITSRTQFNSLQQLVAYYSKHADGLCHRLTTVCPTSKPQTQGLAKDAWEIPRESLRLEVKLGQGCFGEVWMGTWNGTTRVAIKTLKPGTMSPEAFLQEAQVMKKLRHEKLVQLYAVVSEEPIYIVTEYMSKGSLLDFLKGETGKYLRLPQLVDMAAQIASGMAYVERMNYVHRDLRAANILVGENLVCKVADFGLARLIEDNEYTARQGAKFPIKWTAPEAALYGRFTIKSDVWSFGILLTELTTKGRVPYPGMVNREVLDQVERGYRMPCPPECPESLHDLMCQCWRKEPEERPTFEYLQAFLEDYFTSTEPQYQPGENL
Chain of Voltage-gated inwardly rectifying potassium channel KCNH2 (Q12809 whole entry): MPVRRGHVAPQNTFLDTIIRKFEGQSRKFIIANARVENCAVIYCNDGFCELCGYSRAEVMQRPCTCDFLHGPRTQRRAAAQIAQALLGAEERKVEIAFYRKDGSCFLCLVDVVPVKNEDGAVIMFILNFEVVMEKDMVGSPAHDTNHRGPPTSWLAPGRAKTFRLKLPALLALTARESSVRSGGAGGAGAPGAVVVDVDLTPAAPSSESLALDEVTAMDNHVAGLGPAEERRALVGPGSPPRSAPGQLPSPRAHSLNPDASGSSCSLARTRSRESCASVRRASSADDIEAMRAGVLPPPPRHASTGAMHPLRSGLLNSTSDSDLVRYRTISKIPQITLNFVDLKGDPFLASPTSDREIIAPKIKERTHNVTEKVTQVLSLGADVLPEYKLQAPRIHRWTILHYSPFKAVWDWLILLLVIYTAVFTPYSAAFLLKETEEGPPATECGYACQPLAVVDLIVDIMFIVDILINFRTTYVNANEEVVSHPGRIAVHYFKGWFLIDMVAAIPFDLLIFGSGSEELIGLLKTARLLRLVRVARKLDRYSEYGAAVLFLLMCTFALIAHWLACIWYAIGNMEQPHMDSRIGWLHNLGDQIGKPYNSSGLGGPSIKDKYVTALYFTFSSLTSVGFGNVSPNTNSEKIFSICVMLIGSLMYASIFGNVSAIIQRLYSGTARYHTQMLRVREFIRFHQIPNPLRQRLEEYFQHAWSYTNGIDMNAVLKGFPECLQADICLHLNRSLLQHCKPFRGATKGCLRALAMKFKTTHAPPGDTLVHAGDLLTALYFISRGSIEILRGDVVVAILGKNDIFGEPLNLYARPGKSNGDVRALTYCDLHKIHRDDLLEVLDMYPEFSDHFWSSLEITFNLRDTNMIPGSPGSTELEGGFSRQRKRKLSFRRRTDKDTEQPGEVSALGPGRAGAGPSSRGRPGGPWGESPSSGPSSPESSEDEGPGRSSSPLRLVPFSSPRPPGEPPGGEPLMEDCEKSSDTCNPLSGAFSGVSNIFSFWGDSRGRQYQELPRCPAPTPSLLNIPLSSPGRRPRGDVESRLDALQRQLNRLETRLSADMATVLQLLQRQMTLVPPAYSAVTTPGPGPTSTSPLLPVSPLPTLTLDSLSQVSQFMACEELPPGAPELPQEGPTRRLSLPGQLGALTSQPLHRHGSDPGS
Chain of Protein kinase C delta type (Q05655 whole entry): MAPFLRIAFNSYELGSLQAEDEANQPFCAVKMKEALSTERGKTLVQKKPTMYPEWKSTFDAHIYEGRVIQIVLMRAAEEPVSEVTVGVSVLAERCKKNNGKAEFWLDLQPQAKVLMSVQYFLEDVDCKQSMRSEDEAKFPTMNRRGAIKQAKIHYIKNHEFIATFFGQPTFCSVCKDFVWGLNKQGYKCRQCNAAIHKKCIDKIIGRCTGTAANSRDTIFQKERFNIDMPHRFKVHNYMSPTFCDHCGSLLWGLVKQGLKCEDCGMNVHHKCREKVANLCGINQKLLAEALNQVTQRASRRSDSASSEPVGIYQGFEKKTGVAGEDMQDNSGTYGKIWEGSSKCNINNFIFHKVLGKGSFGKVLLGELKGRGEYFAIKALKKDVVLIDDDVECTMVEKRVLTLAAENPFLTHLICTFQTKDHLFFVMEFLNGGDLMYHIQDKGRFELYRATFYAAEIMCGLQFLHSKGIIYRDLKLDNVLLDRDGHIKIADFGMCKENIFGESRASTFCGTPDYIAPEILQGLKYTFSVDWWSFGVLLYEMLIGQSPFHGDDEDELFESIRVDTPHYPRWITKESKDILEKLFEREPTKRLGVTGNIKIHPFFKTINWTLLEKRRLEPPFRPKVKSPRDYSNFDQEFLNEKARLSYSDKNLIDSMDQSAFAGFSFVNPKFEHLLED
Chain of Protein kinase C zeta type (Q05513 whole entry): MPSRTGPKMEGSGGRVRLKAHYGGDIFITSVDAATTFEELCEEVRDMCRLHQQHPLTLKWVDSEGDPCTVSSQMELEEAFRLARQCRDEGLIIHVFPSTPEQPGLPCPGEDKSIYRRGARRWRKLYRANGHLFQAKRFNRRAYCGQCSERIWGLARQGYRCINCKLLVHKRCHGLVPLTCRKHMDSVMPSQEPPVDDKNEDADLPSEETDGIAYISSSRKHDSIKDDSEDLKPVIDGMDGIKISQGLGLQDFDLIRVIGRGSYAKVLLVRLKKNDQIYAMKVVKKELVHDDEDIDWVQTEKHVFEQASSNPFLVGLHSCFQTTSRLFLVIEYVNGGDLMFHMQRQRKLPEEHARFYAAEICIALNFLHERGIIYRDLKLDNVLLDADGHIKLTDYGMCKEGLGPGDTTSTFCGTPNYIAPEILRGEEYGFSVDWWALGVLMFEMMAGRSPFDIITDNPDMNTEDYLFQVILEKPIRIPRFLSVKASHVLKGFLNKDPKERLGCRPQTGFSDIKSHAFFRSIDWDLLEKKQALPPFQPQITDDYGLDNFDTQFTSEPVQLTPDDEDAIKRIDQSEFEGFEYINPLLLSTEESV

CNC(=O)c1cccc(NCc2cnc(Nc3ccccn3)s2)c1
IC50 [1]: > 2500 nM

O=C(NCc1ccccn1)c1ccc(F)c(NCc2cnc(Nc3ccccn3)s2)c1
IC50 [1]: > 2500 nM
IC50 [2]: 53 nM

O=C(NC1CCCC1)c1ccc(F)c(NCc2cnc(Nc3ccccn3)s2)c1
IC50 [1]: > 2500 nM

O=C(NC1CC1)c1ccc(F)c(CCc2cnc(Nc3ccccn3)s2)c1
IC50 [1]: > 2500 nM
IC50 [2]: 5 nM

O=C(NCCN1CCOCC1)c1ccc(F)c(NCc2cnc(Nc3ccccn3)s2)c1
IC50 [1]: > 2500 nM

CNC(=O)c1cc(NCc2cnc(Nc3ccccn3)s2)c(F)cc1F
IC50 [1]: > 2500 nM
IC50 [2]: 52 nM

CNC(=O)c1ccc(F)c(NCc2cnc(Nc3ccccn3)s2)c1
IC50 [1]: > 2500 nM
IC50 [2]: 20 nM

O=C(NC1CC1)c1cc(NCc2cnc(Nc3ccccn3)s2)c(F)cc1F
inhibition in vivo at 50 mg/kg [3]: 64%
bioavailability [4]: 100%
IC50 [5]: > 50 µM
IC50 [1]: > 2500 nM
AUC [6]: 28.5 µM·h
clearance [7]: 13.6 mL/min/kg
IC50 [8]: > 5 µM
IC50 [9]: > 50 µM
IC50 [10]: > 40 µM
IC50 [11]: 23 nM
IC50 [12]: > 10 µM
MRT [13]: 7.9 h
Tmax [14]: 2 h
IC50 [15]: > 10 µM
IC50 [16]: > 40 µM
IC50 [17]: > 10 µM
bioavailability [18]: 52%
half-life [19]: 132 min
Cmax [20]: 44 µM
clearance [21]: 3.9 mL/min/kg
Cmax [22]: 8 µM
Vd [23]: 1.1 L/kg
inhibition in vivo at 25 mg/kg [24]: 23%
Cmax [25]: 148 µM
IC50 [26]: > 50 µM
IC50 [27]: > 50 µM
IC50 [28]: > 5 µM
IC50 [29]: 40 nM
IC50 [30]: > 5 µM
IC50 [31]: > 40 µM
AUC [32]: 202 µM·h
Vd [33]: 1.7 L/kg
half-life [34]: 102 min
half-life [35]: 426 min
IC50 [36]: > 40 µM
IC50 [2]: 25 nM
IC50 [37]: > 25 µM
inhibition in vivo at 180 mg/kg [38]: 67%
MRT [39]: 3.4 h
inhibition in vivo at 60 mg/kg [40]: 16%
IC50 [41]: > 5 µM
IC50 [42]: 400 nM
Vss [43]: 1.6 L/kg
clearance [44]: 11.8 mL/min/kg
IC50 [45]: 200 nM
Tmax [46]: 45 min
IC50 [47]: > 5 µM
IC50 [48]: > 10000 nM
IC50 [49]: 370 nM
inhibition in vivo at 12.5 mg/kg [50]: 21%
Tmax [51]: 30 min
MRT [52]: 3.5 h
inhibition in vivo at 25 mg/kg [53]: 51%
IC50 [54]: > 50 µM
inhibition in vivo at 50 mg/kg [55]: 67%
bioavailability [56]: 100%
inhibition in vivo at 90 mg/kg [57]: 55%
IC50 [58]: 16.6 µM
AUC [59]: 649 µM·h

CNC(=O)c1cccc(CSc2cnc(Nc3ccccn3)s2)c1
IC50 [1]: > 2500 nM

O=C(NC1CC1)c1ccc(F)c(NCc2cnc(Nc3ccccn3)s2)c1
IC50 [1]: > 2500 nM
IC50 [2]: 14 nM

COc1ccc(C(=O)Nc2ncc(SCc3ncc(C(C)(C)C)o3)s2)cc1OC
IC50 [11]: 1900 nM
IC50 [48]: 50 nM

CONC(=O)c1cccc(CSc2cnc(Nc3ccccn3)s2)c1
IC50 [1]: > 2500 nM
IC50 [2]: 110 nM

O=C(NCc1ccccc1)c1ccc(F)c(NCc2cnc(Nc3ccccn3)s2)c1
IC50 [1]: > 2500 nM
IC50 [2]: 120 nM

Reference: ChEMBL document CHEMBL1138058, “Discovery and evaluation of N-cyclopropyl- 2,4-difluoro-5-((2-(pyridin-2-ylamino)thiazol-5-ylmethyl)amino)benzamide (BMS-605541), a selective and orally efficacious inhibitor of vascular endothelial growth factor receptor-2” (J Med Chem, 2006)
